ChEMBL document CHEMBL5725943, “Isoxazole derivatives as FXR agonists and methods of use therof” (2018)

Target: T1, Bile acid receptor (Homo sapiens, UniProt Q96RI1)
T1 sequence (Q96RI1 whole entry): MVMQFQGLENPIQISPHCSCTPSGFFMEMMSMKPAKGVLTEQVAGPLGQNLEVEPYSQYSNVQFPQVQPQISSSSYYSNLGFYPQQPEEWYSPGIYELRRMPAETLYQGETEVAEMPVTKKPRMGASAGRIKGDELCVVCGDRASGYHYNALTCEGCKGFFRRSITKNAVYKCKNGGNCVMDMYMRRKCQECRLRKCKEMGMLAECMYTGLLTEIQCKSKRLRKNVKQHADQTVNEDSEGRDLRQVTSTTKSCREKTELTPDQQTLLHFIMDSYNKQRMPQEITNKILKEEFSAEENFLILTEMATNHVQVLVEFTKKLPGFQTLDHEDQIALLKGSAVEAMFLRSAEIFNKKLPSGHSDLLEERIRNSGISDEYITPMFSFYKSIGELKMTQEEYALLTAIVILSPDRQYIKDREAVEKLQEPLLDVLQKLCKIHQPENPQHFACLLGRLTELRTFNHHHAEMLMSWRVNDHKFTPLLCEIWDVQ
Experiment: FXR Reporter Assay kit purchased from Indigo Bioscience (Catalogue number: IB00601) to determine the potency and efficacy of compound developed by Enanta that can induce FXR activation. The principle application of this reporter assay system is to quantify functional activity of human FXR. The assay utilizes non-human mammalian cells, CHO (Chinese hamster ovary) cells engineered to express human NR1H4 protein (referred to as FXR). Reporter cells also incorporate the cDNA encoding beetle luciferase which catalyzes the substrates and yields photon emission. Luminescence intensity of the reaction is quantified using a plate-reading luminometer, Envision. Reporter Cells include the luciferase reporter gene functionally linked to an FXR responsive promoter. Thus, quantifying changes in luciferase expression in the treated reporter cells provides a sensitive surrogate measure of the changes in FXR activity. […] The assay is according to the manufacturer's instructions. In brief, the assay was performed in white, 96 well plates using final volume of 100 μl containing cells with different doses of compounds. Retrieve Reporter Cells from −80° C. storage. Perform a rapid thaw of the frozen cells by transferring a 10 ml volume of 37° C. cell recovery medium into the tube of frozen cells. Recap the tube of Reporter Cells and immediately place it in a 37° C. water bath for 5-10 minutes. […]
Assay type: cell-based

EC50: < 100 nM
SMILES: CN(Cc1ccc(C(=O)NS(=O)(=O)N(C)C)cc1)c1ccc(OCc2c(-c3c(Cl)cccc3Cl)noc2C2CC2)nc1C(F)(F)F
